# Values joined by “and” are separate entries in the source; they are usually repeats but may differ in a detail not shown here. Equal values may be shown once.
# Experiments:
# [1] = system: healthy males and females; assay: Example 2: randomized placebo-controlled 2 by 2 factorial parallel study, dairy drinks, blood lipid profile; format: in vivo, humans
# Experimental: In a randomized controlled intervention study with 153 healthy males and females the effect of drinks containing cocoa, added theobromine or a combination of cocoa and added theobromine was assessed on HDL cholesterol (HDL-C). As a secondary objective the effect of the various drinks on total cholesterol (TC), LDL cholesterol (LDL-C), Triglycerides (TG) and blood pressure (BP) was assessed. […] After a run-in period of 2 weeks the subjects consumed for 4 weeks daily (in the morning one hour before breakfast) 200 ml acidified dairy drink as in table 5, with added to that 1) none (control drink), 2) 5.9 g cocoa powder (Acticoa, Barry-Callebaut) containing about 500 mg polyphenols and 150 mg theobromine 3) about 850 mg synthetic theobromine (Fagron) and 4) 5.9 g cocoa powder containing 500 mg polyphenols and 150 mg theobromine plus added thereto about 850 mg synthetic theobromine (Fagron) (in total about 1 g theobromine). The synthetic theobromine used was: theobromine complying with European Pharmacopeia 5.7, as available from […], Belgium. For preparing the test products containing theobromine, theobromine was dissolved in a 1 M NaOH solution to create a theobromine stock solution, containing approximately 170 mg/ml of thebromine. The various drinks used in the trial have been made using the following processing: • mixing of the pectin with all of the sugar • dispersing the pectin/sugar mix with part of the demi water at 80° C. to prepare a pectin slurry • dissolving smp in the remainder of the demi water at a temperature of 40° C. • adding the cream • adding the xanthan gum under vigorous mixing for 15 minutes • adding the pectin slurry • adding sucralose • (depending on the drink: adding the cacao slowly under vigorous mixing) • (depending on the drink: adding the theobromine solution) • adding the sunflower oil • adding the flavours and colorants • acidifying the premix with lactic acid until pH 4.2 Inclusion criteria: generally healthy men and pre-menopausal women, age 40-70, with a 10-year risk of developing CHD<10%, not on active cholesterol-lowering or anti-hypertensive treatment and non-smoking. Details of the subject characteristics are set out in table 6. Venous blood samples were drawn from the antecubital vein in SST II advance BD tubes in fasting condition (morning, before breakfast) for blood lipid profile (HDL-C, LDL-C, total cholesterol (TC), triglycerides, HDL-C being herein high density lipoprotein cholesterol, and LDL-C herein being low density lipoprotein cholesterol). The blood samples were taken twice at baseline and were repeated twice after the end of the intervention period. All measurements were done with standard laboratory techniques. Serum lipid outcomes were done in the Intention to treat (ITT) and Per Protocol (PP) population. The statistical analysis was done according to a full 2×2 factorial design including interaction of theobromine and cocoa. Gender within treatment and baseline blood lipids were included in the model as covariates. A 2 sided p-value<0.05 was considered significant.
# Wistar rats [2] = settings: 700 mg/kg body weight; cited from earlier work
# [3] = system: healthy males and females; assay: Example 2: same intervention study, blood pressure; format: in vivo, humans
# Experimental: In a randomized controlled intervention study with 153 healthy males and females the effect of drinks containing cocoa, added theobromine or a combination of cocoa and added theobromine was assessed on HDL cholesterol (HDL-C). As a secondary objective the effect of the various drinks on total cholesterol (TC), LDL cholesterol (LDL-C), Triglycerides (TG) and blood pressure (BP) was assessed.
# After a run-in period of 2 weeks the subjects consumed for 4 weeks daily (in the morning one hour before breakfast) 200 ml acidified dairy drink as in table 5, with added to that 1) none (control drink), 2) 5.9 g cocoa powder (Acticoa, Barry-Callebaut) containing about 500 mg polyphenols and 150 mg theobromine 3) about 850 mg synthetic theobromine (Fagron) and 4) 5.9 g cocoa powder containing 500 mg polyphenols and 150 mg theobromine plus added thereto about 850 mg synthetic theobromine (Fagron) (in total about 1 g theobromine). The synthetic theobromine used was: theobromine complying with European Pharmacopeia 5.7, as available from Fagron, Waregem, Belgium.
# Inclusion criteria: generally healthy men and pre-menopausal women, age 40-70, with a 10-year risk of developing CHD<10%, not on active cholesterol-lowering or anti-hypertensive treatment and non-smoking. Details of the subject characteristics are set out in table 6.
# The statistical analysis was done according to a full 2×2 factorial design including interaction of theobromine and cocoa. Gender within treatment and baseline blood lipids were included in the model as covariates. A 2 sided p-value<0.05 was considered significant.
# Wistar rats [4] = settings: rats fed a diet supplemented with 0.3% of theobromine; cited from earlier work
# [5] = after 4 weeks, ITT, baseline ratio and gender as covariables
# [6] = fasting blood, after 4 weeks daily 200 ml drink, ITT, baseline and gender as covariables
# [7] = pair-wise comparison, treatment A = Placebo, 4 weeks
compound,measurement,setting,value
"Cn1cnc2c1c(=O)[nH]c(=O)n2C [Theobromine, 2,6-dihydroxy-3,7-dimethylpurine]",HDL-C increase compared to placebo,[1]; 4 weeks,~10%
same,Serum LDL-C decrease compared to placebo,[1]; 4 weeks,about 5%
same,Serum LDL-C decrease,"[1]; 4 weeks, compared to placebo",0.18 mmol/L
same,increase in ApoA1 concentrations,"[1]; 4 weeks, main apoprotein found in HDL particles",0.11
same,"Triglyceride, Mean","[1]; after 4 weeks, ITT, baseline and gender as covariables",1.05 mmol/L
same,"HDL-C/LDL-C ratio, Mean",[1]; [5],0.52
same,"HDL-C/non-HDL-C ratio, Mean",[1]; [5],0.43
same,"Total cholesterol, Mean","[1]; fasting blood, after 4 weeks daily 200 ml drink, ITT n=143, baseline and gender as covariables",5.82 mmol/L
same,"HDL-C, Mean",[1]; [6],1.75 mmol/L
same,"LDL-C, Mean",[1]; [6],3.30 mmol/L
same,"HDL-C, Change (A − B)",[1]; [7],0.159 mmol/L
same,"HDL-C/LDL_c ratio, Change (A − B)",[1]; [7],0.12 and 0.117
same,"HDL-C/non-HDL-C ratio, Change (A − B)",[1]; [7],0.13 and 0.126
same,"LDL-C, Change (A − B)",[1]; [7],-0.184 mmol/L
same,"Total cholesterol, Change (A − B)",[1]; [7],-0.038 mmol/L
same,"Triglycerides, Change (A − B)",[1]; [7],0.018 mmol/L
same,"HDL-C, Change (A − B)","[1]; pair-wise comparison, treatment A = Placebo, 4 weeks, listed as theobromine",0.16 mmol/L
same,HDL-cholesterol,Wistar rats [2],elevated
same,LDL-cholesterol,Wistar rats [2],decreased
same,total cholesterol,Wistar rats [2],decreased
same,triglycerides,Wistar rats [2],decreased
same,effect on blood pressure,"[3]; 4 weeks, vs control",no significant effect
same,"DBP, Mean","[3]; after 4 weeks, ITT, baseline DBP and gender as covariables",75.0 mm Hg
same,"SBP, Mean","[3]; after 4 weeks, ITT, baseline SBP and gender as covariables",121.2 mm Hg
same,"DBP, Change (A − B)",[3]; [7],−0.20 mm Hg
same,"SBP, Change (A − B)",[3]; [7],2.55 mm Hg
same,Serum total cholesterol,Wistar rats [4],significantly increased

# — patent US11806352B2, “Theobromine for increasing HDL-cholesterol” (UPFIELD EUROPE B.V., priority 2010, dated 2023)
